Assay results published in patent US5633233A, “Modified kojibiosides analogues” (priority 1995, dated 1997).
Like-named read-outs stand apart in the source and are kept apart here.

How the values were obtained:
glucosidase I = target: T1, glucosidase I (Bos taurus, UniProt A0A3Q1M9D9); assay: Assay for glucosidase I activity (14C-Glc3Man9GlcNAc2 substrate, ConA-Sepharose, scintillation counting); format: biochemical, calf; details: 1 mM concentration
T1 construct: Glucosidase I was solubilized from calf pancreas microsomes; from tissue; host or cells: calf pancreas microsomes
T1 sequence (A0A3Q1M9D9 1-839): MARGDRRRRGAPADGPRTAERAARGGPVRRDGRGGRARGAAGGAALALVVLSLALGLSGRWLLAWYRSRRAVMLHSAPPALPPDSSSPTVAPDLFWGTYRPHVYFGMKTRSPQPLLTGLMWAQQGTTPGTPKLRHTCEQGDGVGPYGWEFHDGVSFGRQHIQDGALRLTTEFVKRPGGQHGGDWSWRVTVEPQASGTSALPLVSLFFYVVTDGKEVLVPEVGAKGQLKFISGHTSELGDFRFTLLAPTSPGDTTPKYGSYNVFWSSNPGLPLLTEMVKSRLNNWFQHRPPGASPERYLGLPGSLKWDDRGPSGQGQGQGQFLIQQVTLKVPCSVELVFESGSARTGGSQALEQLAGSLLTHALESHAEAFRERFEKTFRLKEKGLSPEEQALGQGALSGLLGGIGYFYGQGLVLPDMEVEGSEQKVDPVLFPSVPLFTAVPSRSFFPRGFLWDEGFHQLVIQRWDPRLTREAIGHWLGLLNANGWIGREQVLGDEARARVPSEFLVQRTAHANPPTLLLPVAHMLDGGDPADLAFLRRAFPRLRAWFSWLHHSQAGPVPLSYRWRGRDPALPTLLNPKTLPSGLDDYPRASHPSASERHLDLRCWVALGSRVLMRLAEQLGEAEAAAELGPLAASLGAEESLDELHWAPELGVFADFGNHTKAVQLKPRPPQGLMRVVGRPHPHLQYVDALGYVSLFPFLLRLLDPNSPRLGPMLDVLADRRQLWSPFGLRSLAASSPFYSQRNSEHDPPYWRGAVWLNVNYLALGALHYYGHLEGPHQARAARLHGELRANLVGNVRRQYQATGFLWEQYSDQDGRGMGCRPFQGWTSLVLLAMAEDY
Procedure: Some of the compounds described herein were evaluated as inhibitors of glucosidase I activity. Glucosidase I was purified by a literature procedure as follows. To prepare an affinity matrix, carboxypentyl-deoxynojirimycin was coupled with Affigel 102 according to Shailubhai et al^51. Glucosidase I was solubilized from calf pancreas microsomes, and purified from glucosidase II activity by affinity chromatography according to the same authors.
Substrates for Assay of Glucosidase I ^14 C-labelled Glc3 Man9 GlcNAc2 -PP-Dol was prepared by the incubation of UDP-[^14 C]Glc with calf pancreas microsomes as described by Herscovien et al^52. Glc3 Man9 GlcNAc2 was released by mild acid hydrolysis and purified by BioGel P4 chromatography.
Assay for Glucosidase I Activity
Affinity purified glucosidase I was assayed as described by Saunier et al.^53 by adsorption of undigested substrate […] to ConA-Sepharose and scintillation counting of [^14 C]Glc in the column eluent. Oligosaccharides as potential inhibitors were evaluated using castanospermine as a baseline inhibitor.

α-glucosidase = details: cited from earlier work
[1] = tested on: α-glucosidase I from yeast microsomal preparation; details: cited from earlier work
[2] = tested on: α-glucosidase I from mung bean seedlings; details: cited from earlier work
[3] = tested on: α-glucosidase I from bovine mammary gland; details: cited from earlier work
[4] = tested on: α-glucosidase I from rat liver microsomes; details: cited from earlier work
[5] = affinity purified glucosidase I from calf pancreas microsomes, read-out: inhibition of glucosidase I activity

Question: Which inhibition at 1000 µM (glucosidase I; [5]) does the source give for COC(=O)CCCCCCCCO[C@H]1O[C@H](CO)[C@@H](O)[C@H](O)[C@H]1O[C@H]1O[C@H](CO)[C@@H](O)[C@H](O)[C@H]1O [compound 44, 8-Methoxycarbonyloctyl 2-O-(α-D-glucopyranosyl)-α-D-glucopyranoside] here?
Answer: 20%

Question: Which inhibition at 1000 µM (glucosidase I; versus known compound 44, read-out: increase in inhibition activity relative to compound 44) does the source give for COC(=O)CCCCCCCCO[C@H]1O[C@H](CN)[C@@H](O)[C@H](O)[C@H]1O[C@H]1O[C@H](CO)[C@@H](O)[C@H](O)[C@H]1O [compound 57, 8-Methoxycarbonyloctyl 6-amino-6-deoxy-2-O-(α-D-glucopyranosyl)-α-D-glucopyranoside] here?
Answer: 70%

Question: What about the inhibition at 1000 µM (glucosidase I; [5]) of the same molecule?
Answer: 34%

Question: With C[C@H]1O[C@H](O[C@H]2[C@H](O)[C@@H](O)[C@@H](O[C@H]3[C@H](O)[C@@H](O)[C@@H](O)O[C@@H]3CO)O[C@@H]2CO)[C@H](O)[C@@H](O)[C@@H]1N[C@H]1C[C@H](CO)[C@@H](O)[C@H](O)[C@H]1O [dihydroacarbose] as the molecule, how does the α-glucosidase inhibition (α-glucosidase) read?
Answer: potent

Question: With C[C@H]1O[C@H](O[C@H]2[C@H](O)[C@@H](O)[C@@H](O[C@H]3[C@H](O)[C@@H](O)C(O)O[C@@H]3CO)O[C@@H]2CO)[C@H](O)[C@@H](O)[C@@H]1N[C@H]1C=C(CO)[C@@H](O)[C@H](O)[C@H]1O (stereo partly drawn) [acarbose] as the molecule, how does the α-glucosidase inhibition (α-glucosidase) read?
Answer: potent

Question: Which “inhibition of α-glucosidase I” value [1] does the source give for OC[C@H]1O[C@H](O[C@H]2C(O)O[C@H](CO)[C@@H](O)[C@@H]2O)[C@H](O)[C@@H](O)[C@@H]1O (stereo partly drawn) [Kojibiose] here?
Answer: inhibited

Question: What about the “inhibition of α-glucosidase I” value [2] of the same molecule?
Answer: inhibited

Question: What about the “inhibition of α-glucosidase I” value [3] of the same molecule?
Answer: inhibited

Question: What about the “inhibition of α-glucosidase I” value [4] of the same molecule?
Answer: inhibited
